The values below come from patent US7728132B2, “Compositions for stabilizing chlorinated water to sunlight decomposition, and methods of preparation thereof” (Enviro Tech Chemical Services, Inc., priority 2007, dated 2010).

A value given as a limit tells only on which side of the number the result lay.

For data set [1] the following is noted: granules in pool water; cited from earlier work.
For data set [2] the following is noted: as reported for prior-art products; cited from earlier work.
A short description of data set [3]: Dispensing and dissolution of product in swimming pool. The data set is classed as physicochemical. Particulars: 5.85 lb dry solid in 20,000 gallon pool, recirculation pump running. The procedure: The gallon jugs of Examples 2 and 4 were taken to a residential swimming pool of 20,000 gallons estimated volume. The water temperature was 76° F. The sample of Example 2 was mildly shaken and then using a single motion, poured into the 8 foot deep end of the pool near the return pipe from the pump where the turbulence was high. […] Next the gallon jug of Example 4 was emptied into the pool in the same vicinity and same manner. […] The jug was rinsed clean with two aliquots of pool water.
Cyanuric acid wetcake (1405 lb) containing 66% solids is introduced to a 50 cubic foot stainless steel ribbon blender powered by dual 15 HP motors. Soft water (43.9 lb) is added while mixing in the blender. With further blending, solid sodium hydroxide microbeads (288.3 lb) are introduced over a three-minute period. The mixture becomes very hot as evidenced by the large amount of steam that escapes the reaction mixture into the atmosphere. The outside skin of the ribbon blender becomes too hot to touch and a temperature of 130° F. is measured with a digital infrared thermometer. […]
A one-gallon jug of Instant Pool Water Conditioner (Natural Chemistry Inc. of Norwalk, Conn.) was purchased from a local pool store. […] Using a pool brush, the undissolved material was readily dispersed and dissolved with a sweeping action. […]

For the molecule `O=c1[nH]c(=O)[nH]c(=O)[nH]1` [cyanuric acid], the time to dissolve entry in data set [1] is reported as “several days”.

`O=c1[n-]c(=O)[nH]c(=O)[nH]1.[Na+]` [monosodium cyanurate]: the pH entry in data set [2] is reported as “neutral”.

On to `O=c1[n-]c(=O)[nH]c(=O)[nH]1.[Na+]` [Prospective Example 8, monosodium cyanurate], for which the “time until all is dissolved” value in data set [3] is at most 30 min.
